Measured values as given in patent US9078442B2, “Herbicidally and fungicidally active 3-phenylisoxazoline-5-carboxamides and 3-phenylisoxazoline-5-thioamides” (BAYER INTELLECTUAL PROPERTY GMBH, priority 2011, dated 2015).

Key:
[1] = system: Mycosphaerella graminicola; experiment: In vivo test Mycosphaerella graminicola (wheat); settings: Mycosphaerella graminicola on wheat, evaluation 21-28 days after inoculation
Experimental: Wheat plants (cultivar: (Scipion) are cultivated in 50/50 peat pozzolan substrate at 12° C. and sprayed at the 1-leaf stage with the active compound preparation as given in Example A. After 24 hours, the plants are sprayed with a spore suspension of Mycosphaerella graminicola (500 000 spores/ml).

Peronospora parasitica = experiment: In vivo test Peronospora parasitica (downy mildew on cabbage), protective; settings: evaluation 5 days after infection
Experimental: In vivo test Peronospora parasitica (downy mildew on cabbage) To prepare an appropriate active compound formulation, the active compound is mixed with acetone/Tween/DMSO and the mixture is diluted with water to the desired concentration. Cabbage plants are cultivated in 50/50 peat/pozzolan soil in small pots at 18-20° C. and sprayed at the cotyledon stage at the respective stated application rates to test for protective activity. Control plants were treated in the same manner, but using an aqueous solution without any active compounds. 24 hours after the spraying, the plants were sprayed with a spore suspension of Peronospora parasitica (50 000 spores/ml). The plants were placed in a cabin at 20° C. in a humid atmosphere for 5 days.

Botrytis cinerea = experiment: In vivo test Botrytis cinerea (gray mold on cucumbers); settings: Botrytis cinerea on cucumber, evaluation 5-7 days after infection
Experimental: Cucumber plants (Vert petit de Paris) are cultivated in 50/50 peat pozzolan substrate at 20-25° C. and sprayed at the Z16 stage with the active compound preparation given in Example 1. After 24 hours, the upper sides of the leaves of the plants are sprayed with a spore suspension of Botrytis cinerea (150 000 spores/ml). The spores of a 15-day old culture are collected and suspended in a nutrient solution consisting of • 20 g/l of gelatin; • 50 g/l of D-fructose; • 2 g/l of NH4NO3; • 1 g/L of KH2PO4. The inoculated cucumber plants are placed at 15-11° C. (day/night) and at 80% relative atmospheric humidity for 5-7 days.

| Structure (SMILES) | Activity [%] (efficacy) ([1]; application rate 500 g/ha) | Activity [%] (efficacy) (Peronospora parasitica; application rate 500 g/ha) | further results |
| --- | --- | --- | --- |
| CC1(C(=O)NCC2CCCO2)CC(c2cc(Cl)cc(Cl)c2)=NO1 (mixture of isomers) [Example 6.470] | 100% | 71% |  |
| CCn1cc(NC(=O)C2(C)CC(c3cc(Cl)cc(Cl)c3)=NO2)c(C)n1 (stereo not shown) [Example 1.017] | 88% |  |  |
| COC(=O)Cc1cccc(NC(=O)C2(C)CC(c3cc(Cl)cc(Cl)c3)=NO2)c1 (stereo not shown) [Example 1.035] | 91% |  | Activity [%] (efficacy) (Botrytis cinerea; application rate 500 g/ha): 89% |
| CC1(C(=O)Nc2cccc(CC(=O)O)c2)CC(c2cc(Cl)cc(Cl)c2)=NO1 (stereo not shown) [Example 1.036] | 73% |  |  |
| CCOC(=O)Cc1ccc(NC(=O)C2(C)CC(c3cc(Cl)cc(Cl)c3)=NO2)cc1 (stereo not shown) [Example 1.057] | 91% |  |  |
| COC(=O)c1ccc(NC(=O)C2(C)CC(c3cc(Cl)cc(Cl)c3)=NO2)cc1 (stereo not shown) [Example 1.060] |  |  | Activity [%] (efficacy) (Botrytis cinerea; application rate 500 g/ha): 100% |
| CC1(C(=O)Nc2ccc(C(=O)O)cc2)CC(c2cc(Cl)cc(Cl)c2)=NO1 (stereo not shown) [Example 1.064] | 75% | 95% | Activity [%] (efficacy) (Botrytis cinerea; application rate 500 g/ha): 100% |
| Cc1nn(C)c(C)c1CNC(=O)C1(C)CC(c2cc(Cl)cc(Cl)c2)=NO1 (stereo not shown) [Example 1.108] |  | 100% |  |
| Cc1nn(C)cc1CNC(=O)C1(C)CC(c2cc(Cl)cc(Cl)c2)=NO1 (stereo not shown) [Example 1.116] |  | 100% |  |
| Cc1cc(CNC(=O)C2(C)CC(c3cc(F)cc(F)c3)=NO2)n(C)n1 (stereo not shown) [Example 1.120] |  | 99% |  |
| Cc1c(CNC(=O)C2(C)CC(c3cc(Cl)cc(Cl)c3)=NO2)cnn1C (stereo not shown) [Example 1.138] | 75% | 98% |  |
| CCn1cc(CNC(=O)C2(C)CC(c3cc(C)cc(Cl)c3)=NO2)c(C)n1 (stereo not shown) [Example 1.181] | 85% | 100% | Activity [%] (efficacy) (Botrytis cinerea; application rate 500 g/ha): 70% |
| CCn1cc(CNC(=O)C2(C)CC(c3cc(C(F)(F)F)cc(C(F)(F)F)c3)=NO2)c(C)n1 (stereo not shown) [Example 1.224] | 95% | 99% |  |
| Cn1nccc1CNC(=O)C1(C)CC(c2cc(Cl)cc(Cl)c2)=NO1 (stereo not shown) [Example 1.291] |  |  | Activity [%] (efficacy) (Peronospora parasitica; application rate 1200 g/ha): 88% |
| CC1(C(=O)NCc2ccccc2C(=O)O)CC(c2cc(Cl)cc(Cl)c2)=NO1 (stereo not shown) [Example 1.315] | 100% |  |  |
| CCn1cc(CNC(=O)C2(C)CC(c3cc(Cl)cc(Cl)c3)=NO2)c(Cl)n1 (stereo not shown) [Example 1.339] | 85% | 100% |  |
| CC(C)n1cc(CNC(=O)C2(C)CC(c3cc(F)cc(F)c3)=NO2)c(Cl)n1 (stereo not shown) [Example 1.340] | 88% | 97% |  |
| CC(C)n1cc(CNC(=O)C2(C)CC(c3cccc(F)c3)=NO2)c(Cl)n1 (stereo not shown) [Example 1.341] |  | 95% |  |
| CC(C)n1cc(CNC(=O)C2(C)CC(c3cc(Cl)cc(Cl)c3)=NO2)c(Cl)n1 (stereo not shown) [Example 1.343] | 92% | 99% |  |
| CC1(C(=O)NCc2nc(C3CC3)no2)CC(c2cc(Cl)cc(Cl)c2)=NO1 (stereo not shown) [Example 1.352] |  | 83% |  |
| Cc1n[nH]cc1CNC(=O)C1(C)CC(c2cc(F)cc(F)c2)=NO1 (stereo not shown) [Example 1.363] |  | 71% |  |
| CC1(C(=O)NCc2nc(C(F)(F)F)cs2)CC(c2cc(Cl)cc(Cl)c2)=NO1 (stereo not shown) [Example 1.379] |  | 96% |  |
| Cc1cc(CNC(=O)C2(C)CC(c3cc(Cl)cc(Cl)c3)=NO2)no1 (stereo not shown) [Example 1.421] | 87% |  |  |
| CC1(C(=O)NCc2ccncc2)CC(c2cc(Cl)cc(Cl)c2)=NO1 (stereo not shown) [Example 1.458] |  |  | Activity [%] (efficacy) (Peronospora parasitica; application rate 1200 g/ha): 81% |
| CC1(C(=O)NCc2ncccn2)CC(c2cc(Cl)cc(Cl)c2)=NO1 (stereo not shown) [Example 1.459] | 100% |  |  |
| CC1(C(=O)NCCc2ccccn2)CC(c2cc(Cl)cc(Cl)c2)=NO1 (stereo not shown) [Example 1.676] |  | 85% |  |

| Structure (SMILES) | Activity [%] (efficacy) ([1]; application rate 500 g/ha) | Activity [%] (efficacy) (Peronospora parasitica; application rate 500 g/ha) | further results |
| --- | --- | --- | --- |
| CC1(C(=O)NCCCn2cccn2)CC(c2cc(Cl)cc(Cl)c2)=NO1 (stereo not shown) [Example 1.903] | 97% | 85% |  |
| CCC1(C(=O)Nc2cc(C)nn2C)CC(c2cc(Cl)cc(Cl)c2)=NO1 (stereo not shown) [Example 2.003] |  |  | Activity [%] (efficacy) (Peronospora parasitica; application rate 1200 g/ha): 90% |
| CCn1cc(CNC(=O)C2(CC)CC(c3cc(Cl)cc(Cl)c3)=NO2)c(C)n1 (stereo not shown) [Example 2.163] | 96% | 100% |  |
| CCCn1cc(CNC(=O)C2(CC)CC(c3cc(Cl)cc(Cl)c3)=NO2)c(C)n1 (stereo not shown) [Example 2.257] | 79% | 99% |  |
| CCn1cc(CNC(=O)C2(C(F)(F)F)CC(c3cc(Cl)cc(Cl)c3)=NO2)c(C)n1 (stereo not shown) [Example 3.161] |  | 100% |  |
| CCn1cc(CNC(=O)C2(C(F)(F)F)CC(c3ccc(F)c(Cl)c3)=NO2)c(C)n1 (stereo not shown) [Example 3.170] |  | 94% |  |
| CCn1cc(CNC(=O)C2(COC)CC(c3cc(Cl)cc(Cl)c3)=NO2)c(C)n1 (stereo not shown) [Example 5.029] |  | 87% |  |
| CNC(=O)C1(C)CC(c2cc(Br)cc(Br)c2)=NO1 (stereo not shown) [Example 6.022] | 98% |  |  |
| Cc1cc(Cl)cc(C2=NOC(C)(C(=O)NC3CC3)C2)c1 (stereo not shown) [Example 6.072] | 98% |  |  |
| COCC#CC(C)(C)NC(=O)C1(C)CC(c2cc(Cl)cc(Cl)c2)=NO1 (stereo not shown) [Example 6.115] |  | 100% |  |
| CC(C)NC(=O)C1(C)CC(c2cc(Br)cc(C(F)(F)F)c2)=NO1 (stereo not shown) [Example 6.184] | 100% |  |  |
| CC(C)NC(=O)C1(C)CC(c2cc(F)cc(Cl)c2)=NO1 (stereo not shown) [Example 6.190] |  |  | Activity [%] (efficacy) (Peronospora parasitica; application rate 1200 g/ha): 100% |
| COc1cc(Cl)cc(C2=NOC(C)(C(=O)NC(C)C)C2)c1 (stereo not shown) [Example 6.191] |  |  | Activity [%] (efficacy) (Botrytis cinerea; application rate 1200 g/ha): 100% |
| Cc1cc(Cl)cc(C2=NOC(C)(C(=O)NC(C)C)C2)c1 (stereo not shown) [Example 6.192] | 97% | 96% |  |
| Cc1cc(Cl)cc(C2=NOC(C)(C(=O)NCC(F)(F)F)C2)c1 (stereo not shown) [Example 6.386] | 100% |  |  |
| CCNC(=O)C1(C)CC(c2cc(C)cc(Cl)c2)=NO1 (stereo not shown) [Example 6.412] | 100% |  |  |
| CC1(C(=O)NCC2CCCCC2)CC(c2cc(Cl)cc(Cl)c2)=NO1 (stereo not shown) [Example 6.430] | 81% |  |  |
| CCOP(=O)(CNC(=O)C1(C)CC(c2cc(Cl)cc(Cl)c2)=NO1)OCC (stereo not shown) [Example 6.433] |  | 100% |  |
| CCOC(=O)C(C)CNC(=O)C1(C)CC(c2cc(Cl)cc(Cl)c2)=NO1 (stereo not shown) [Example 6.480] | 88% |  |  |
| CCOC(=O)CCNC(=O)C1(C)CC(c2cc(Cl)cc(Cl)c2)=NO1 (stereo not shown) [Example 6.566] | 98% |  |  |
| CC(C)(C)OC(=O)CCNC(=O)C1(C)CC(c2cc(Cl)cc(Cl)c2)=NO1 (stereo not shown) [Example 6.656] | 98% | 92% |  |
| CCOCCCNC(=O)C1(C)CC(c2cc(Cl)cc(Cl)c2)=NO1 (stereo not shown) [Example 6.681] |  |  | Activity [%] (efficacy) (Peronospora parasitica; application rate 1200 g/ha): 97% |
| CCC1(C(=O)NC(C)C)CC(c2cc(Cl)cc(Cl)c2)=NO1 (stereo not shown) [Example 7.161] |  |  | Activity [%] (efficacy) ([1]; application rate 1200 g/ha): 85%; Activity [%] (efficacy) (Botrytis cinerea; application rate 1200 g/ha): 100%; Activity [%] (efficacy) (Peronospora parasitica; application rate 1200 g/ha): 97% |
| CNC(=O)C1(C(F)(F)F)CC(c2cc(Cl)cc(Cl)c2)=NO1 (stereo not shown) [Example 8.025] |  | 100% |  |
| O=C(NC1CC1)C1(C(F)(F)F)CC(c2cc(Cl)cc(Cl)c2)=NO1 (stereo not shown) [Example 8.052] |  |  | Activity [%] (efficacy) (Peronospora parasitica; application rate 1200 g/ha): 100% |
| CC(C)NC(=O)C1(C2CC2)CC(c2cc(Cl)cc(Cl)c2)=NO1 (stereo not shown) [Example 10.032] |  |  | Activity [%] (efficacy) (Peronospora parasitica; application rate 1200 g/ha): 96% |
